Like-named read-outs stand apart in the source and are kept apart here. Where no end group is shown, it is not given here.
What was measured:
[1] = Membrane leakage (liposome calcein dye-release) experiments; assay type: biochemical; details: for maximum leakage (calcein release): 5, 20, 50 μM peptide, up to 30 hours; for liposome integrity / dye release: FIG. 8
Description: Calcein-containing LUVs were prepared as described previously (19), with minor modifications. 1-palmitoyl-2-oleoyl-sn-glycero-3-phosphocholine (POPC) and 1-palmitoyl-2-oleoyl-sn glycero-3-phospho-L-glycerol (POPG) were obtained from Avanti Polar Lipids (Alabaster, Ala.). Mixtures of POPC and POPG in a 7:3 molar ratio were dissolved in 1:1 chloroform:methanol. The solvent was evaporated under dry nitrogen gas to yield a lipid film that was further dried under vacuum for at least 24 hours to remove any residual organic solvent. The film was then hydrated in 70 mM calcein (Sigma Aldrich, St. Louis, Mo.) and 10 mM Tris-HCl (pH 7.4) at a lipid concentration of 5 mM. The suspensions were subjected to 10 freeze-thaw cycles of temperatures of −80 and 50° C., followed by extrusion through two 0.2 μm pore size filters (Whatman, Florham Park, N.J.). Non-encapsulated calcein was separated from calcein-filled LUVs by size exclusion using a Sephadex G-75 (GE Healthcare, Piscataway, N.J.) equilibrated in buffer (10 mM Tris-HCl pH 7.4, 100 mM sodium chloride). The calcein-containing LUVs were concentrated to 3-5 mM and stored at 4° C. Phospholipid content and concentrations of the LUVs were determined by RP-HPLC using 100% Methanol and 100 mM TEAC (tetraethylammonium chloride) pH 7.8 as the solvent and a C18 column. Diameter of LUVs were determined using a Microtrac UPA 150 (York, Pa.). […] LUVs were used for experiments within 5 days of preparation.
Pure, lyophilized K11V-TR and K11VV2L-TR peptides were solubilized in water. Three different stock solutions were made at concentrations of 0.2, 0.8, and 2 mM. 5 uL of each peptide stock solution was added to a well containing 195 uL of 7:3 calcein-containing POPC:POPG LUVs in a buffer (10 mM Tris-HCL pH 7.4, 100 mM sodium chloride). Dye leakage was measured using a SpectraMax5 (Molecular Devices, Sunnyvale, Calif.) at 485 nm excitation and a 535 nm emission. Measurements were taken every 10 minutes for 30 hours. Each well contains a final LUV concentration of 100 μM with final K11V-TR and K11VV2L-TR construct concentrations of 5, 20, and 50 μM. Synthetic human Islet Amyloid Polypeptide (hIAPP) residues 8-37, purchased from CS-Bio (Menlo Park, Calif.), was used as a positive control; since hIAPP has been previously shown to interact and disrupt membranes (15, 16). Lyophilized hIAPP was dissolved in 100% hexafluoro-2-propanol (HFIP) and put under vacuum to evaporate the HFIP. hIAPP was then reconstituted in water at 0.2 mM, filtered using a 0.2 μm filter, and added to six wells containing 100 μM Calcein-containing LUVs to a final concentration of 5 μM hIAPP. Fluorescence at a given time point was normalized as described previously (20), using the equation: Fnormalized=(Ft−Fmin)/(Fmax−Fmin) Ft is the measured fluorescence intensity, Fmin the fluorescence of 100 μM calcein-containing LUVs alone, and Fmax is the maximum fluorescence determined by incubation of 100 μM LUVs in the presence of 0.5% Triton X-100.

polyclonal antibody A11 = assay: Immuno-dot blot with oligomer-specific antibody A11; assay type: binding
Description: (§1) Briefly, a small aliquot of cylindrin peptide samples, at a concentration of a few mg/mL, were spotted onto a nitrocellulose membrane (Trans-Blot, Bio-Rad, Hercules, Calif.). After blocking with 10% fat free milk in TBST buffer (50 mM Tris, 150 mM NaCl, 0.05% Tween20), the membranes were incubated with polyclonal antibody or monoclonal antibody (˜1:250 dilution in 5% fat free milk, TBST buffer) at room temperature for 1 hour. The membranes were washed three times in TBST buffer before incubating with anti-rabbit HRP-linked antibody (1:5000 dilution in 5% fat free milk, TBST buffer) (Invitrogen, Carlsbad, Calif.) at room temperature for 1 hour. After washing the membranes three times in TBST buffer, the films were developed following the protocol as described in the Kit (Thermo Scientific Pierce ECL Western Blotting Substrate, #32209). Positive controls for A11 and OC were prefibrillar oligomers and fibrils, respectively (14).

[2] = test system: HeLa, HEK293, PC-12 and SH-SY5Y cells
OC antibody = assay: Immuno-dot blot with fibril-specific antibodies OC; assay type: binding
Description: as §1

in vitro = details: human (HeLa, HEK293, SH-SY5Y); rat (PC-12)
[3] = test system: Hela; ES derived motor neurons (GFP+); assay: Toxicity assay of SOD1 cylindrins (MTT, visual inspection of GFP+ neuron morphologies); assay type: cell-based
[4] = molecular target: the molecule itself; assay: native nanoelectrospray mass spectrometry; self-association of identical chains
Description: The cylindrin peptide abbreviation (see Table 1) is labeled for the respective mass spectrum in the upper right corner of the inset. (A) Mass spectrum of cylindrin peptide, K11VV2L dissolved directly in 200 mM ammonium acetate buffer. Expansion of the hexameric oligomers with n-1 and n-2 dissociation products (see for review (13)), shown in inset. […] The n-1 (pentamer) and n-2 (tetramer) dissociated species are located under the respective label, corresponding to ions with +4 and +3 charge states, respectively. The 1231.76 ion corresponds to the K11VV2L peptide chain with a +1 charge state. (B) Native mass spectrum of K11V-TR purified by size exclusion chromatography (see methods for details). […] The labeled +2 and +6 charge state ions correspond to one and four peptide chains, respectively. […]
One to five milligrams of lyophilized peptide was dissolved in 1 mL of water and filtered through a 0.22 or 0.45 μm Centrex MF filter (Whatman, Florham Park, N.J.). […] Absorbance at 220 nm and 280 nm were recorded using a Waters 2487 dual λ absorbance detector (Waters, Milford, Mass.). Protein standards were monitored by absorbance at 280 nm, and cylindrin peptides monitored by absorbance at 220 nm.

[5] = molecular target: the molecule itself; assay: X-ray crystal structure; self-association of identical chains
Description: The SOD1-derived peptide […] (SEQ ID NO:61) was crystallized and data collection was performed as follows: The peptide was crystallized via hanging-drop vapor diffusion at 18° C. The peptide was dissolved at 50 mg/mL in 50 mM Tris, then was mixed 1:1 with the reservoir solution: 0.2M Na Citrate pH 5, 13% PEG 6000. The peptide grew into needle-shaped crystals in 2-3 days. For data collection, hundreds of crystals were mounted because of their quick decay. However, two larger crystals were able to be used to collect complete data sets, by diffracting from several points along the length of the crystals. Diffraction from iodine-soaked crystals was used to obtain phases by SIRAS.

In the case of “GKVKVLGDVIEVGGKVKVLGDVIEV [K11V-TR (wild-type)]”, the “maximum leakage (calcein release)” value ([1]; 100 μM LUVs) is reported as 10%.

For “GKLKVLGDVIEVGGKLKVLGDVIEV [Peptide K11V-TR]”, the “maximum leakage (calcein release)” value ([1]; 100 μM LUVs) was 10%, the “liposome integrity / dye release” value [1] was “did not exhibit this trend” and the “recognition by A11 antibody” value (polyclonal antibody A11) was “recognized by A11”. The cell toxicity ([2]; different peptide concentrations, HEK293, HeLa, PC12, SH-SY5Y, FIG. 7) was “concentration dependent cell toxicity” and the “cell toxicity (cell viability)” value ([2]; final concentration 100 μM, four mammalian cell lines, FIG. 1F) was “toxic”.

In the case of “hIAPP8-37: Synthetic human Islet Amyloid Polypeptide residues 8-37, positive control (ATQRLANFLVHSSNNFGAILSSTNVGSNTY; ends and bridges not checked; UniProt P10997 41-70, looked up, fragment) [reference compound]”, the “leakage (calcein release)” value ([1]; 5 μM positive control, 100 μM LUVs) is reported as “up to 60%” and the “liposome integrity / dye release” value [1] is reported as “clearly diminished liposome integrity leading to dye release”.

For KLKVLGDVIEV [Peptide K11VV2L], the “recognition by A11 antibody” value (polyclonal antibody A11) was “recognized by A11”.

For “GKLKVLGDVIEVGGKLKVLGDVIEV [K11V-TR fibrils] (not fully specified)”, the “recognition by A11 antibody” value (polyclonal antibody A11) was “recognized only by the OC antibody”, the “recognition by OC antibody” value (OC antibody) was “recognized only by the OC antibody” and the “recognition by OC antibody” value (OC antibody; listed as fibrils of K11V-TR) was “immunoreactive”.

“H-GKLKWLGDVIEVGGKLKWLGDVIEV-OH [Peptide K11VV4W-TR]” showed a viability at 24 h, 100 µM (in vitro) of ~100%.

For KVKVWGSIGKL [KVKVWGSIKGL], the “toxicity to cultured cells” value ([3]; peptide (cylindrin)) was “toxic” and the “toxicity to cultured cells” value ([3]; peptide amyloid-like fibrils) was “non-toxic”.

With GDVIEV [G6V fibrils] the toxicity of fibrils ([2]; fibrils, in contrast to oligomeric solutions) was “no toxicity”.

With “cylindrin: six-stranded anti-parallel barrel oligomer of K11V (KVKVLGDVIEV)” the “recognition by A11 antibody” value (polyclonal antibody A11) was “recognizes”.

B1: K11VV2L cylindrin peptide (KLKVLGDVIEV), oligomeric solution (peptide)
peptide: KLKVLGDVIEV
notes: Forms hexameric oligomers (native MS, crystal structure 3SGP); also called single segment; alphaB crystallin residues 90-100 mutant V91L
B1: binds [4].

B2: K11V-TR tandem repeat cylindrin peptide (tandem repeat of K11VV2L), oligomeric solution (peptide)
peptide: GKLKVLGDVIEVGGKLKVLGDVIEV
notes: Trimer of 25-residue chains (SEC, native MS, crystal structure 3SGR); also called K11VV2L-TR; tandem repeat segment
B2: binds [4].

B3: SOD1-derived peptide KVKVWGSIKGL, SOD1(29-39) P29K (peptide)
peptide: KVKVWGSIKGL
notes: Open-ended oligomer (corkscrew), 16 strands per turn, any number of peptide units; also called SOD1 cylindrin; kv11
B3: binds [5].
